# Legend:
# human 5-HT1A receptor = molecular target: T1, human 5-HT1A receptor (Homo sapiens, UniProt P08908); assay: Radioligand binding, [3H]-8-OH-DPAT displacement, HEK-293 cells; conditions: mean ± SEM, three independent binding experiments; read-out: Ki [nM] 5-HT1AR
# T1 construct: expressed in transfected cells
# T1 sequence (P08908 1-422): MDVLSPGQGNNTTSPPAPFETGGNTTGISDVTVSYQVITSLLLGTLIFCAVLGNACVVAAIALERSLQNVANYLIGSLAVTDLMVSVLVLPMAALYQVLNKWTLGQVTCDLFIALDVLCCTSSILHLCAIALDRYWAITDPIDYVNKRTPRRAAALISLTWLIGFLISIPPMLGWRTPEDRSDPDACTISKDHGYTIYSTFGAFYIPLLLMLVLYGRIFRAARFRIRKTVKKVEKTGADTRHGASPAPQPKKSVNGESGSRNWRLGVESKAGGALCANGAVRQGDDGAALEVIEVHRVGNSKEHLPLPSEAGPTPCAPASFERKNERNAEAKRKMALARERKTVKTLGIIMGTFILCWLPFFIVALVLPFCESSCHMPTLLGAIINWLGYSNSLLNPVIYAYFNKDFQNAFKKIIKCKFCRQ
# Experimental: All experiments were performed in HEK-293 cells, which stably express the human 5-HT1A, 5-HT6, 5-HT7b, and D2L receptors, or using CHO-K1 cells expressing human serotonin 5-HT2A receptor, following the previously reported procedures. For displacement studies, the following radioligands (PerkinElmer, USA) at given concentrations were used at: 2.5 nM [^3H]-8-OH-DPAT (135.2 Ci/ mmol); 1 nM [^3H]-ketanserin (53.4 Ci/mmol); 2 nM [^3H]-LSD (83.6 Ci/mmol); 0.8 nM [^3H]-5-CT (39.2 Ci/mmol) or 2.5 nM [^3H]-raclopride (76.0 Ci/mmol) for 5-HT1A, 5-HT2A, 5-HT6, 5-HT7b and D2L receptors, respectively. All tested compounds were evaluated in triplicate at 7 concentrations (10^−10–10^−4 M). The inhibition constants (Ki) were calculated from the Cheng–Prusoff equation [25]. A detailed description is reported in the Supporting Information.
# 1. Procedure for radioligand binding assay
# All experiments were carried out according to the previously published procedures. HEK293 cells stably expressing human 5-HT1A, 5-HT6, 5-HT7b and D2L receptors (prepared with the use of Lipofectamine 2000) or CHO-K1 cells with plasmid containing the sequence coding for the human serotonin 5-HT2A receptor (Perkin Elmer) were maintained at 37 °C in a humidified atmosphere containing 5% CO2 and grown in Dulbecco’s Modified Eagle’s Medium containing 10% dialyzed fetal bovine serum and 500 μg/ml G418 sulfate. For membrane preparation, cells were cultured in 150 cm2 flasks, grown to 90% confluence, washed twice with pre-warmed to 37 °C phosphate buffered saline (PBS) and centrifuged (200 × g) in PBS containing 0.1 mM EDTA and 1 mM dithiothreitol. Prior to membrane preparation, pellets were stored at –80 °C. […]
# The process of equilibration was terminated by rapid filtration through Unifilter plates with a 96-well cell harvester and radioactivity retained on the filters was quantified on a Microbeta plate reader (PerkinElmer, USA). […] The inhibition constants (Ki) were calculated from the Cheng-Prusoff equation [4].
# [1] = molecular target: T2, human serotonin 5-HT2A receptor (Homo sapiens, UniProt P28223); assay: Radioligand binding, [3H]-ketanserin displacement, CHO-K1 cells; conditions: mean ± SEM, three independent binding experiments; read-out: Ki [nM] 5-HT2AR
# T2 construct: host or cells: CHO-K1
# [2] = Metabolic stability in rat liver microsomes (RLM); type: in vitro ADME; conditions: for microsomal CLint at 20 µM / half-life at 20 µM: male, rat, rat liver microsomes, pH 7.4, protein concentration 0.5 mg/mL; for half-life at 20 µM: read-out: Metabolic Stability t1/2; for Metabolic Stability Major Metabolite: protein concentration 0.5 mg/mL
# Experimental: Metabolic stability studies were performed according to reported protocols. […] All samples were analyzed in duplicate.
# T2 sequence (P28223 whole entry): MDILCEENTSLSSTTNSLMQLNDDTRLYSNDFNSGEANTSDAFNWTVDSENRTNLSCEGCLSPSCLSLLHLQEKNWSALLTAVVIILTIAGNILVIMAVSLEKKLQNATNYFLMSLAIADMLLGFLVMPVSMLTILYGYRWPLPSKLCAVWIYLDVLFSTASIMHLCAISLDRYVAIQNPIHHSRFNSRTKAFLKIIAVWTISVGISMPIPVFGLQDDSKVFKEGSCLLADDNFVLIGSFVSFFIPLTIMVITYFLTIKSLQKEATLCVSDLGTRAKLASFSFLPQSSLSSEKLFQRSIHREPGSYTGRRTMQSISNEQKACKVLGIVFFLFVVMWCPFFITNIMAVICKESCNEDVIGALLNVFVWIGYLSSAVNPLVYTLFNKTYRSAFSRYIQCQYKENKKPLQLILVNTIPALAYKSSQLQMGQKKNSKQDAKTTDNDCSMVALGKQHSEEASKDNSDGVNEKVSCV
SMILES,Ki (human 5-HT1A receptor) [nM],Ki [1] [nM],microsomal CLint at 20 µM [2] [µL/min/mg],half-life at 20 µM [2] [h],Metabolic Stability Major Metabolite [2]
"O=S(=O)(c1cccc(N2CCNCC2)c1)N1Cc2ccccc2C1 [3e, 2-{[3-(Piperazin-1-yl)phenyl]sulfonyl}isoindoline]",951 ± 120,128 ± 37,3.78,6.12,not detected
"O=S(=O)(c1cccc(N2CCNCC2)c1)N1Cc2cccc(Cl)c2C1 [3f, 4-Chloro-2-{[3-(piperazin-1-yl)phenyl]sulfonyl}isoindoline]",385 ± 71,170 ± 32,18,1.28,hydroxylated
"O=S(=O)(c1cccc(N2CCNCC2)c1)N1Cc2cccc(Br)c2C1 [3g, 4-Bromo-2-{[3-(piperazin-1-yl)phenyl]sulfonyl}isoindoline]",680 ± 33,159 ± 25,14.7,1.57,hydroxylated
